Results reported in patent publication US12644203B2, “Cellular phenotype screening method” (ThinkCyte, Inc., priority 2020, dated 2026).

Columns and labels:
Assay type in all cases: cell-based
[1] = test system: nuclear localization of NF-κB induced by LPS in THP1 cells; assay: Cellular phenotype screening in a 96-well microplate: imaging cell sorter sorting, then enrichment of first barcode nucleic acid sequences; conditions: sorted for absence of NF-κB nuclear localization under LPS stimulation; value above 1 = more concentrated than before sorting; TAK242 at 30 μM; FIG. 21
Procedure: In accordance with the schematic diagram illustrated in FIG. 18, a search was carried out for test targets which cause a desired phenotypic change (in the example of FIG. 18, test substances which inhibit nuclear localization of NF-κB induced by LPS).
Specifically, in each well of a 96-well microplate, the first barcode nucleic acids were attached to cells (THP1 cells) according to the method described in Reference Example 1 and further brought into contact with test substances. At this time, different types and concentrations of the test substance and different types of the first barcode nucleic acids were used in each well. Due to this, 96 types of test targets (24 types of test substances×4 types of concentrations) were associated with 96 types of first barcode nucleic acids which are attached to the cells (THP1 cells). […]
Next, in the same manner as the examples described above, a single cell analysis was performed on the cell mixture solution sorted and recovered by the imaging cell sorter. Specifically, when reading out the DNA barcodes modifying each cell and cell-derived genetic information, the Chromium Controller apparatus and the Single Cell 3′ Reagent Kit v3 manufactured by 10× Genomics, which is a single cell analysis technology using a droplet technique as in Example 5 and Example 6, were used. […]

[2] = test system: nuclear localization of NF-κB in THP1 cells; assay: Nuclear localization score of sorted cells by image flow cytometry; conditions: cells treated with LPS and test substance (TAK242 30 μM); higher value indicates higher degree of nuclear localization; FIG. 22
Procedure: The photographic images of the cells were captured by an image flow cytometry and the nuclear localization scores were also calculated by the imaging flow cytometry. Regarding the nuclear localization scores, a higher value indicates a higher degree of nuclear localization.

[3] = test system: NFκB protein nuclear localization in THP1 cells; assay: NFκB protein localization by immunostaining and fluorescent light microscope in cells treated with the drug; conditions: LPS 2 μg/mL, 2 hours at 37 degrees, fluorescent light microscope, FIG. 7
Procedure: Next, cells collected by centrifugation in advance were added to the tube 1 and incubated. The cells used at this time were THP1 cells and the cell concentration was set to 1×10^7 cells/mL. The incubation was carried out for 5 minutes at room temperature.
Cells were resuspended in RPM1-1640 medium with 10% FBS and 50 μM 2-mercaptoethanol in the tube 1 and the tube 2, respectively. Next, as a drug, lipopolysaccharide (LPS) suspended in dimethyl sulfoxide (DMSO) was added to tube 1 only, at a final concentration of 2 μg/mL. In the tube 2, only DMSO, the solvent for the drug, was added. Next, the tube 1 and the tube 2 were incubated for 2 hours at 37 degrees in CO2, respectively. Through the experiment up to here, the drug condition whether the drug LPS is present or not, was respectively associated to each of the cells by corresponding each cell to the first barcode nucleic acid type A or the second barcode nucleic acid type B.
Next, some cells were collected from the tube 1 and the tube 2, respectively. […]

Molecule	enrichment level of the first barcode nucleic acid sequence of the sorted cells [1]	nuclear localization score [2]	localization of NFκB protein [3]
CCOC(=O)C1=CCCC[C@H]1S(=O)(=O)Nc1ccc(F)cc1Cl [TAK242]	approximately 1.5 fold	0.92	
lipopolysaccharide [LPS]		0.30	almost all of the NFκB protein was localized in the nucleus
C=C1C(=O)O[C@@H]2/C=C(\C)CC/C=C(\C)CC[C@@H]12 [Costunolide]	significantly enriched	0.23	
